This assay has as its target T1, Syk kinase (Homo sapiens, UniProt P43405).
T1 construct: purchased Millipore 14-314
As to the kind of experiment: ELISA-based Syk kinase assay (phosphorylation of HS1 peptide substrate by isolated Syk kinase). The class given is biochemical. The following applies: IC50 of Syk kinase inhibition; 2 μM ATP, 2 μM peptide substrate. As to the method: Compounds were tested for the ability to inhibit Syk kinase catalyzed phosphorylation of a peptide substrate in an assay with isolated Syk kinase.
An assay was carried out in a Costar white 96 well plate (Fisher Scientific, Cat No. 07-200-591) coated overnight with 0.01 mg/ml Neutravidin (Pierce, 100 μl/well) at 4° C. Neutravidin pre-coated 96 well plates were blocked with 2% BSA in PBST buffer for at least 1 hour before starting the assay at room temperature. Serially diluted compound stock solution containing a subject compound was prepared separately in DMSO solution starting from 300 μM and 2 μl of this diluted compound (3% DMSO final concentration) was added directly to neutravidin coated assay plate containing 55.5 μl/well of kinase reaction buffer composed of 20 mM HEPES, pH 7.4, 5 mM MgCl2, 2 mM MnCl2, 1 mM DTT, 0.01% Tween 20 pre-mixed with ATP and kinase substrate (HS1 peptide). Reaction was initiated by adding of 2.5 μl/well Syk kinase (Millipore, Cat No. 14-314) resulting in a final reaction volume of 60 μl and then the reaction was allowed to continue for 30 minutes at room temperature. Final enzyme reaction conditions were 20 mM HEPES, pH 7.4, 5 mM MgCl2, 2 mM MnCl2, 1 mM DTT, 0.01% Tween 20, 0.25 ng Syk, 2 μM ATP, 2 μM peptide substrate (Biotin-EQEDEPEGDYEEVLE-CONH2, SynPep Corporation). After completing the reaction, assay plate was washed three times with PBST and incubated for 1 hour at room temperature with 100 μl/well of phosphopeptide detection antibody solution prepared by mixing 1-1000 diluted mouse anti-pTyr monoclonal antibody (Cell Signal Technology, Cat No. 9411) and 1-1000 diluted goat HRP-conjugated anti-mouse IgG (Jackson Immunoresearch, Cat. No. 115-035-003). Before developing the plate with supersignal ELISA pico chemiluminescent substrate (Pierce), plate was washed three times again with PBST and were read on a SpectraMax M5 microplate reader (Moleculear Devices).
In general terms: ELISA stands for enzyme-linked immunosorbent assay.

Here are results for 28 compounds from US8377945B2, “Small molecule inhibitors of spleen tyrosine kinase (SYK)” (Rigel Pharmaceuticals Inc., priority 2009, dated 2013).

pIC50: −log10 of the molar value.

What is called pIC50 is the IC50 on a negative log10 scale, so that one unit is a factor of ten. The low end stands for a high IC50, the high end for a low IC50. `N#Cc1cccc(Nc2c(-c3ccc4c(c3)NC(=O)CO4)[nH]c3c(C#N)cnn23)c1` [Compound 9]: the pIC50 was 4.60 to 5.52.

Compound `COc1cc(-c2[nH]c3c(C#N)cnn3c2NC(C)(C)CC(C)(C)C)cc(OC)c1OC` [Compound 11] showed a negative-log IC50 (pIC50) of less than 4.60.

In turn, `COc1cc(-c2[nH]c3c(C#N)cnn3c2N)cc(OC)c1OC` [Compound 17] showed a negative-log IC50 (pIC50) of 4.60 to 5.52.

`COc1cc(-c2[nH]c3c(C#N)cnn3c2NC(=O)c2ccc(C(F)(F)F)c(F)c2)cc(OC)c1OC` [Compound 18] gave a negative-log IC50 (pIC50) of 4.60 to 5.52.

For the compound `COc1cc(-c2[nH]c3c(C#N)cnn3c2NC(=O)c2ccccc2)cc(OC)c1OC` [Compound 19], the pIC50 was 4.60 to 5.52.

In the case of `COc1cc(-c2[nH]c3c(C#N)cnn3c2NC(=O)c2ccc(F)cc2)cc(OC)c1OC` [Compound 20], the negative-log IC50 (pIC50) was 4.60 to 5.52.

`COc1cccc(C(=O)Nc2c(-c3cc(OC)c(OC)c(OC)c3)[nH]c3c(C#N)cnn23)c1` [Compound 21] gave a pIC50 of less than 4.60.

Regarding `COc1cc(-c2[nH]c3c(C#N)cnn3c2Nc2ccc(Cl)c(Cl)c2)cc(OC)c1OC` [Compound 22], the pIC50 was 5.52 to 6.29.

The compound `COc1cc(Nc2c(-c3ccc4cc[nH]c4c3)[nH]c3c(C#N)cnn23)cc(OC)c1OC` [Compound 26] gave a negative logarithm of the IC50 (pIC50) of 4.60 to 5.52.

`N#Cc1cnn2c(Nc3ccc(N4CCOCC4)cc3)c(-c3ccc4cc[nH]c4c3)[nH]c12` [Compound 27] had a pIC50 of 5.52 to 6.29.

In the case of `COc1cc(Nc2c(-c3cc(OC)c(OC)c(OC)c3)[nH]c3c(C#N)cnn23)cc(OC)c1OC` [Compound 29], the negative-log IC50 (pIC50) was 4.60 to 5.52.

Consider `CC(=O)Nc1cccc(Nc2c(-c3ccc4c(c3)NC(=O)CO4)[nH]c3c(C#N)cnn23)c1` [Compound 31], for which the negative logarithm of the IC50 (pIC50) is 5.52 to 6.29.

`CC(=O)Nc1ccc(-c2[nH]c3c(C#N)cnn3c2Nc2cccc(NC(C)=O)c2)cc1` [Compound 34] had a pIC50 of 4.60 to 5.52.

The compound `COc1cccc(CNc2c(-c3ccc4c(c3)NC(=O)CO4)[nH]c3c(C#N)cnn23)c1` [Compound 35] had a negative logarithm of the IC50 (pIC50) of 4.60 to 5.52.

Turning to `COc1ccc(Nc2c(-c3ccc(F)cc3F)[nH]c3c(C#N)cnn23)cc1OC` [Compound 36], the pIC50 was 4.60 to 5.52.

As to `COc1ccc(Nc2c(-c3ccc(F)c(F)c3)[nH]c3c(C#N)cnn23)cc1OC` [Compound 37], the negative-log IC50 (pIC50) was 5.52 to 6.29.

For `COc1cc(-c2[nH]c3c(C#N)cnn3c2NC(=O)c2nnc(-c3ccccc3)o2)cc(OC)c1OC` [Compound 39], the pIC50 was 4.60 to 5.52.

Compound `COc1ccc(CCNc2c(-c3ccc4c(c3)NC(=O)CO4)[nH]c3c(C#N)cnn23)cc1OC` [Compound 40] showed a pIC50 of 4.60 to 5.52.

With `COc1ccc(CCNc2c(-c3cc(OC)c(OC)c(OC)c3)[nH]c3c(C#N)cnn23)cc1OC` [Compound 41], the pIC50 was less than 4.60.

With `COc1ccc(CC(=O)Nc2c(-c3cc(OC)c(OC)c(OC)c3)[nH]c3c(C#N)cnn23)cc1OC` [Compound 42], the pIC50 was less than 4.60.

As to `COc1cccc(CNc2c(-c3cc(OC)c(OC)c(OC)c3)[nH]c3c(C#N)cnn23)c1` [Compound 46], the negative-log IC50 (pIC50) is 4.60 to 5.52.

In the case of `COc1cc(-c2[nH]c3c(C#N)cnn3c2NC(=O)CBr)cc(OC)c1OC` [Compound 53], the pIC50 was less than 4.60.

For `COc1cc(-c2[nH]c3c(C#N)cnn3c2NC(=O)COc2ccccc2)cc(OC)c1OC` [Compound 54], the negative logarithm of the IC50 (pIC50) is less than 4.60.

Regarding `COc1ccc(Nc2c(Cc3ccccc3)[nH]c3c(C#N)cnn23)cc1OC` [Compound 55], the pIC50 was 4.60 to 5.52.

On to `COc1ccc(Nc2c(-c3cc(F)c(F)c(F)c3)[nH]c3c(C#N)cnn23)cc1OC` [Compound 57], for which the negative logarithm of the IC50 (pIC50) was 4.60 to 5.52.

Regarding `COc1ccc(Nc2c(-c3cc(Cl)c(OC)c(OC)c3)[nH]c3c(C#N)cnn23)cc1OC` [Compound 58], the pIC50 was 5.52 to 6.29.

The compound `COc1cc(-c2[nH]c3c(C#N)cnn3c2Nc2ccc(OC)c(OC)c2)ccc1F` [Compound 59] showed a negative logarithm of the IC50 (pIC50) of 5.52 to 6.29.

Regarding `N#Cc1cnn2c(Nc3ccc4c(c3)OCCO4)c(-c3ccc4cc[nH]c4c3)[nH]c12` [Compound 60], the negative-log IC50 (pIC50) is 4.60 to 5.52.
